The text below walks through data of patent US6620828B2, “Thiazole compounds and pharmaceutical compositions for inhibiting protein kinases and methods for their use” (Agouron Pharmaceuticals, Inc., priority 1999, dated 2003).

Where two headings read alike, the source gives them in different places.

This test deals with human umbilical vein endothelial cells (HUVEC). Put plainly: HUVEC proliferation assay. In kind it is cell-based. The conditions noted are these: for inhibition at 0.15 µM / inhibition at 0.05 µM / inhibition at 0.001 µM / inhibition at 0.01 µM: Homo sapiens, HUVEC; for inhibition at 0.05 µM: 50 nM; for inhibition at 0.001 µM: 1 nM; for inhibition at 0.01 µM: 10 nM. The method, boiled down: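 Exponentially growing HUVEC were serum-starved 24 h (F12K + 1% FBS), pre-treated 1 h with compound (0.1% DMSO final), then stimulated with 6 ng/ml VEGF. Proliferation was read 72 h later by MTT reduction (A595). IC50 came from seven 0.5-log concentrations in triplicate; screens gave % inhibition relative to VEGF-only and starved wells.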

[1] abbreviates: Table I screening results, 150 nM, crude combinatorial amide library.
Setting [2] is: Inhibition of HUVEC Proliferation, crude combinatorial urea library, read-out: Inhibition @ 50 nM.
Where [3] appears, read: table following Table II (untitled), crude combinatorial library.
Setting [4] is: table following Table II (untitled), crude combinatorial library, read-out: % inhibition @ 10 nM.
Where [5] appears, read: crude combinatorial urea library, read-out: Inhibition of HUVEC Proliferation % inhibition @ 10 nM.
The mark [6] stands for this setting: crude combinatorial urea library, read-out: Inhibition of HUVEC Proliferation % inhibition @ 50 nM.
Where [7] appears, read: Inhibition of HUVEC Proliferation, crude combinatorial urea library, read-out: % inhibition @ 50 nM.

On to `COc1cc(Nc2nc(N)c(-c3nc(-c4cccc(NC(=O)c5cccs5)c4)cs3)s2)cc(OC)c1OC`, for which, under setting [1], the inhibition at 0.15 µM turned out to be 29%. In the case of `COc1cccc(C(=O)Nc2cc(-c3noc(-c4sc(NC(=O)NCc5ccccc5)nc4N)n3)c(F)cc2F)c1`, under setting [2], the inhibition at 0.05 µM amounted to 61%. `COc1cc(Nc2nc(N)c(-c3nc(-c4cc(NC(=O)C5CCN(C(C)=O)CC5)ccc4C)no3)s2)cc(OC)c1OC`: the inhibition at 0.001 µM under setting [3] was -4%. The inhibition at 0.01 µM under setting [4] is 16%. As to `COc1cc(Nc2nc(N)c(-c3nc(-c4cccc(NC(=O)C(O)(c5ccccc5)c5ccccc5)c4)cs3)s2)cc(OC)c1OC`, under setting [1], the inhibition at 0.15 µM was -8%. On to `C/C=C(\C)C(=O)Nc1ccc(C)c(-c2noc(-c3sc(Nc4cc(OC)c(OC)c(OC)c4)nc3N)n2)c1`, for which the inhibition at 0.001 µM under setting [3] came out at 60%. For the same compound, under setting [4], the inhibition at 0.01 µM was 123%. Consider `COc1cccc(C(=O)Nc2cccc(-c3csc(-c4sc(NC(=O)NCc5cccnc5)nc4N)n3)c2)c1`, for which, under setting [5], the inhibition at 0.01 µM turned out to be 3%. The inhibition at 0.05 µM under setting [6] was 105%. As to `COc1cccc(C(=O)Nc2cc(-c3csc(-c4sc(NC(=O)NCC(=O)O)nc4N)n3)c(F)cc2F)c1`, the inhibition at 0.05 µM under setting [7] came out at 23%. `COc1cccc(C(=O)Nc2cc(-c3noc(-c4sc(NC(=O)NCC(C)(C)CN(C)C)nc4N)n3)c(F)cc2F)c1`: the inhibition at 0.05 µM under setting [2] was found to be 77%. As for `C=CCC(C)C(=O)Nc1cccc(-c2csc(-c3sc(Nc4cc(OC)c(OC)c(OC)c4)nc3N)n2)c1` (stereo not shown), the “% inhibition @ 150 nM” value under setting [1] was determined as 0%. On to `COc1cc(Nc2nc(N)c(-c3nc(-c4cccc(NC(=O)c5ccc(SC)cc5)c4)cs3)s2)cc(OC)c1OC`, for which the inhibition at 0.15 µM under setting [1] worked out at 31%. Take `COc1cccc(C(=O)Nc2cc(-c3noc(-c4sc(NC(=O)NCCC(C)C)nc4N)n3)c(F)cc2F)c1`: the inhibition at 0.05 µM under setting [2] was 96%. Consider `COC(=O)c1ccc(C(=O)Nc2cccc(-c3csc(-c4sc(Nc5cc(OC)c(OC)c(OC)c5)nc4N)n3)c2)nc1`, for which the inhibition at 0.15 µM under setting [1] came to 20%. On the same count and under the same terms, the result for `COc1cc(Nc2nc(N)c(-c3nc(-c4cccc(NC(=O)CCc5ccc(C)cc5)c4)cs3)s2)cc(OC)c1OC` reads 25%. As to `COc1cc(Nc2nc(N)c(-c3nc(-c4cc(NC(=O)[C@H](O)C(C)(C)C)ccc4C)no3)s2)cc(OC)c1OC`, the inhibition at 0.001 µM under setting [3] was -34%. Moreover, the inhibition at 0.01 µM under setting [4] is -11%. Consider `COc1cc(Nc2nc(N)c(-c3nc(-c4cccc(NC(=O)Cc5ccc6c(c5)OCO6)c4)cs3)s2)cc(OC)c1OC`, for which the inhibition at 0.15 µM under setting [1] was 46%. `COc1cccc(C(=O)Nc2cc(-c3noc(-c4sc(NC(=O)NCC(N)=O)nc4N)n3)c(F)cc2F)c1` [drawing 803]: under setting [2], the inhibition at 0.05 µM was found to be 30%. On to `COc1cccc(C(=O)Nc2cc(-c3csc(-c4sc(NC(=O)NCCCN(C)c5ccccc5)nc4N)n3)c(F)cc2F)c1`, for which the inhibition at 0.05 µM under setting [7] came to 45%. Take `CNC(=O)Nc1nc(N)c(-c2nc(-c3cccc(NC(=O)[C@@H]4CCC[C@@H]4O)c3)cs2)s1`: for the setting “Table II screening results, crude combinatorial amide library”, the inhibition at 0.001 µM was 15%. For the same compound, the inhibition at 0.01 µM (Table II screening results, crude combinatorial amide library, read-out: % inhibition @ 10 nM) turned out to be 13%.

`COc1cccc(C(=O)Nc2cccc(-c3csc(-c4sc(NC(=O)NCC(C)(C)CN(C)C)nc4N)n3)c2)c1`: the inhibition at 0.01 µM under setting [5] is -25%. The inhibition at 0.05 µM under setting [6] was found to be 36%. In the case of `CCN(CCNC(=O)Nc1nc(N)c(-c2nc(-c3cc(NC(=O)c4cccc(OC)c4)c(F)cc3F)no2)s1)c1cccc(C)c1`, under setting [2], the inhibition at 0.05 µM was 67%. Consider `COc1cc(Nc2nc(N)c(-c3nc(-c4cccc(NC(=O)Cc5ccc(Cl)c(Cl)c5)c4)cs3)s2)cc(OC)c1OC`, for which, under setting [1], the inhibition at 0.15 µM is -5%. Turning to `CCCCN(CCCC)CCCNC(=O)Nc1nc(N)c(-c2nc(-c3cc(NC(=O)c4cccc(OC)c4)c(F)cc3F)no2)s1`, the inhibition at 0.05 µM under setting [2] came to 80%.

With `CCN(CC)CCCC(C)NC(=O)Nc1nc(N)c(-c2nc(-c3cc(NC(=O)c4cccc(OC)c4)c(F)cc3F)no2)s1` (stereo not shown), the inhibition at 0.05 µM under setting [2] is 7%. On to `COc1cc(Nc2nc(N)c(-c3nc(-c4cccc(NC(=O)c5ccc(C(C)(C)C)cc5)c4)cs3)s2)cc(OC)c1OC`, for which, under setting [1], the inhibition at 0.15 µM was found to be 26%. With `COc1cccc(C(=O)Nc2cc(-c3csc(-c4sc(NC(=O)NCCCN5CCCCCC5)nc4N)n3)c(F)cc2F)c1`, the inhibition at 0.05 µM under setting [7] is 86%.
